Measurements from US20150119825A1, “OPTIMIZING UNGUAL TREATMENT BY QUANTITATIVE AUTORADIOGRAPHY” (GALDERMA RESEARCH & DEVELOPMENT, priority 2012, published 2015).
“And” between values parts separate entries of the source, which are not always exact repeats. Identical values can stand only once. “Also recorded” adds a separate entry of the source. Counter-ions that a name gives are not always drawn. Blank lines part the entries; values can stand above or below the molecule they belong to.

Legend:
[1] = In vitro diffusion of [^14C]-Terbinafine at the nail bed of drilled human nails, quantitative whole body autoradiography (QWBA); type: in vitro ADME; settings: for diffusion of radioactivity between the holes: 2 mm and 4 mm spaced holes
Source text: Four frozen human cadaver fingertips with nails were used. Each fingernail contained two series of three holes, one set at 2 mm apart and the other set at 4 mm apart.
The samples were placed in a Transwell plate containing 3 milliLiters (mL) of culture medium. Three of the nails received an application of the radiolabeled test item during one hour; one received an application of a non-radiolabeled test item. A finite dose (5 microLiters (μL)) of formulation was applied on the nail surface. Incubation was conducted for 1 hour at 37° C., 5% CO2 and saturated hygrometry. At the end of the incubation, excess of formulation was removed from the nail surface.
Each sample was frozen onto a support using adapted QWBA procedures. Sections were then taken through each fingernail onto tape and were analyzed using QWBA methods to determine the diffusion of radioactivity at the nail bed level from each site of administration. A 3-dimensional graph of the concentration of radioactivity was then created to visualize the diffusion through the nail matrix.
In vitro diffusion of [^14C]-Terbinafine on nail beds was studied on drilled human hand nails. Four samples were used through the study and were drilled as follows: • On each sample: 3 holes of 0.6 mm diameter, with 2 mm distance between each hole and 3 holes of 0.6 mm diameter, with 4 mm distance between each hole • 3 samples were treated with 10% [^14C]-Terbinafine in amphoteric solution One sample was treated with placebo • Treatment duration: 1 hour • 5 μL of test item were applied on each nail • Incubation at 37° C., 5% CO2 and saturated hygrometry during 1 hour • At the end of the incubation period, the excess of test item was removed and the samples were stored at −80° C. before processing for autoradiography analysis.
(§1) Three of the nails received an application of the radiolabeled test item, whilst the other nail received an application of the unlabelled test item as follows: • Samples A, B and C (Treated samples): 5 μL of the formulation containing 10% [^14C]-Terbinafine were applied on the surface of each of the nail samples. • Sample D (Control sample): 5 μL of the formulation containing 10% Terbinafine were applied on the surface of the nail sample.
(§2) The culture plate containing the nail samples was placed in a culture incubator kept at 37° C., 5% CO2 and saturated hygrometry. The duration of the nail treatment was 1 hour.
At the end of the treatment period, the excess of the formulation remaining on the nail was wiped off using a dried cotton swab and five successive cotton swabs wetted with absolute ethanol. These cotton swabs were discarded. The nail samples were then stored at −80° C., and shipped frozen for analysis by autoradiography.
The samples (four human fingernails) were received deeply frozen on solid CO2 and immediately transferred to storage in a freezer set to maintain a temperature of −80° C. A supporting block was prepared to support each sample during sectioning. Specifically, a mould was filled with 2% carboxymethylcellulose solution and frozen in a mixture of dry ice and hexane. The frozen finger was fixed in a horizontal position on a cork disc using a cryo-matrix and the disc was then fixed to the carboxymethylcellulose block with a further cryo-matrix. The finger was embedded so that the nail was facing to the side and to ensure that each series of holes was as horizontal as possible (dependant on the alignment of the drilled holes). A further cryomatrix was added around each finger to provide additional support during sectioning. The frozen blocks were stored in a freezer set to maintain a temperature of −20° C. prior to and following sectioning.
Each nail was sectioned through until immediately adjacent to the uppermost hole in the series. Horizontal sections (approximately 30 μm thick) were then taken through each fingernail onto adhesive tape. […]

[2] = Radioactivity level in the culture medium (receiver chamber) at the end of the treatment period, liquid scintillation counting; type: in vitro ADME, human; settings: for radioactivity in culture medium, mean / radioactivity in culture medium, whole receiver chamber: 1 hour treatment; for radioactivity in culture medium, single counts: 5 μL of 10% formulation on drilled nail, 1 hour, 37° C., triplicate counts, hydrochloride; for Applied dose (%) found in culture medium: applied dose 1106175 dpm
Description: Each nail sample was then placed on a cell culture insert. Each insert was introduced into a receiver chamber of a 6-well culture plate. The receiver chamber was filled with 3 mL HHBSS containing antibiotics (2% penicilline-streptomycine).
as §1, §2
In order to check the specificity of the incubation system (no radioactive contamination due to leakage of applied formulation through the insert), the radioactivity level was measured in the culture medium at the end of the treatment period. Each receiver chamber medium was controlled in triplicate by liquid scintillation counting as follows: 100 μL of culture medium was directly counted by liquid scintillation counting using 10 mL of HIONIC FLUOR available from Perkin Elmer. The results presented in the table below show a very low radioactivity level in culture medium of sample A and sample C. The radioactivity level only represented 1.6% of the applied dose in sample A and 0.1% of the applied dose in sample C. These radioactivity levels were considered negligible and could not compromise the results of the study.

Compound: CN(C/C=C/C#CC(C)(C)C)Cc1cccc2ccccc12 [Terbinafine]
localization of diffusion (plots of FIGS. 4, 6, 8, 10, 12, 14) ([1]; Nails A to C, 2 mm and 4 mm hole sets): particularly localized to the holes in the nail

radioactive signal on the surface of nail plates ([1]; overall conclusion): marked radioactive signal
radioactivity in culture medium, mean ([2]; Mean sample A): 575.7 dpm/100 μL
radioactivity in culture medium, whole receiver chamber ([2]; Mean sample A): 17270 dpm/3 mL
radioactivity in culture medium, whole receiver chamber ([2]; Mean sample B): BLQ
radioactivity in culture medium, mean ([2]; Mean sample B, LOQ 54 dpm): 46.3 dpm/100 μL
radioactivity in culture medium, whole receiver chamber ([2]; Mean sample C): 1640 dpm/3 mL
radioactivity in culture medium, mean ([2]; Mean sample C, LOQ 54 dpm): 54.7 dpm/100 μL
Applied dose (%) found in culture medium ([2]; Sample A): 1.6%
Applied dose (%) found in culture medium ([2]; Sample B): 0%
Applied dose (%) found in culture medium ([2]; Sample C): 0.1%
Compound: CN(C/C=C/C#CC(C)(C)C)Cc1cccc2ccccc12 [[^14C]-Terbinafine, Terbinafine hydrochloride]
diffusion of radioactivity between the holes ([1]; Nail A, 1 hour): little diffusion of radioactivity between the holes
concentrations of radioactivity between the holes ([1]; Nail A, 4 mm spacing, 1 hour): decrease to background levels between the holes
diffusion of radioactivity between the holes ([1]; Nail B, 1 hour): little diffusion of radioactivity between the holes
concentrations of radioactivity between the holes ([1]; Nail B, 4 mm spacing, 1 hour): decrease to background levels between the holes
diffusion of radioactivity between the holes ([1]; Nail C, 1 hour, holes did not receive a full application): little diffusion of radioactivity between the holes
concentrations of radioactivity between the holes ([1]; Nail C, 4 mm spacing, 1 hour): decrease to background levels between the holes
diffusion at the nail bed level around the holes ([1]; overall conclusion): diffusion of the radiolabeled drug at the nail bed level around the holes
diffusion of radioactivity between the holes, 4 mm versus 2 mm spacing ([1]; overall conclusion, Nails A to C, hydrochloride): little diffusion of radioactivity between the 4 mm spaced holes compared to the 2 mm spaced holes; also recorded: little diffusion of radioactivity between the 4 mm spacing holes compared to the 2 mm spacing holes
concentrations of radioactivity between the holes ([1]; overall conclusion, 4 mm spaced holes, hydrochloride): decreased to background radiation levels between the holes; also recorded: decrease to background levels between the holes
radioactivity in culture medium, single counts ([2]; Sample A): 494 dpm/100 μL and 621 dpm/100 μL and 612 dpm/100 μL
radioactivity in culture medium, single counts ([2]; Sample B): 48 dpm/100 μL and 49 dpm/100 μL and 42 dpm/100 μL
radioactivity in culture medium, single counts ([2]; Sample C): 49 dpm/100 μL and 52 dpm/100 μL and 63 dpm/100 μL
